Patent US20130130376A1, “SCREENING METHODS, COMPOSITIONS IDENTIFIED THEREBY, TOOLS USEFUL FOR THE IDENTIFICATION THEREOF, AND CELL POPULATIONS PRODUCED THEREBY” (priority 2010, published 2013)

Test system: Jurkat cells
Test: ECMP attachment screen for Jurkat cell attachment on hydrogel array spots
Assay type: cell-based, human
Details: printed alone in a 400 μm spot on hydrogel coated slide; nuclear fluorescence (DraQ) after 3 hours of attachment
Procedure: In certain embodiments, stock solutions of extracellular matrix (ECM) components (0.01 mg/ml-1 mg/ml), such as Collagen I, III, IV, V, VI, Fibronectin, Laminin, and the like, as well as Hyaluronic Acid, gelatin and BSA (negative control) are mixed 1:1 with 200 mM acetate, 10 mM EDTA, 40% (v/v) glycerol, and 0.5% (v/v) Triton X-100 in MQH2O, at pH 4.9. Individual and combinations of different components are mixed in 384-well plates. This ECM based array is used to screen for the optimal cell attachment conditions.
The human acute T cell leukemia Jurkat cell line (ATTC Number TIB-153) was purchased from American Type Culture Collection (ATCC). Cells were cultured in RPMI-1640, supplemented with 10% FBS, 2 mmol/liter glutamin and antibiotics (100 IU/ml of penicillin G) and incubated at 37° C. in a humidified atmosphere of 5% CO2. […]
FIG. 3, for example, summarizes the attachment components that were identified to support Jurkat cell attachment on invention arrays. Briefly, Jurkat nuclear intensity was monitored by fluorescence using DraQ staining after 3 hours of attachment. The slides were read using a […] and fluorescence was quantified using the Genepix 2.0 software. […]

In the case of Fibronectin, the Jurkat cell attachment is reported as “consistently supported attachment of Jurkat cells”.
